Earlier results in publication PMC7699892, “Repositioned Drugs for Chagas Disease Unveiled via Structure-Based Drug Repositioning” (International Journal of Molecular Sciences, 2020).

Tested on: T. cruzi
Design: method as in per drug in column Reference of Table 2
Settings: class of literature evidence of trypanocidal activity; ref per drug in Table 2; cited from earlier work
Further: key: ? indicates unknown activity; + indicates indirect evidence of activity; ++ indicates direct evidence of activity.

SMILES | Trypan. Activity
COc1cc(Cc2cnc(N)nc2N)cc(OC)c1OC [Trimethoprim] | ++
CSc1ccc2c(c1)N(CCC1CCCCN1C)c1ccccc1S2 (stereo not shown) [Thioridazine] | ++
CN(C)CCCC1(c2ccc(F)cc2)OCc2cc(C#N)ccc21 (stereo not shown) [Citalopram] | ++
Nc1nc(N)c2nc(-c3ccccc3)c(N)nc2n1 [Triamterene] | ++
CC(=O)O[C@H]1C(=O)[C@@]2(C)[C@H]([C@H](OC(=O)c3ccccc3)[C@]3(O)C[C@H](OC(=O)[C@H](O)[C@@H](NC(=O)c4ccccc4)c4ccccc4)C(C)=C1C3(C)C)[C@]1(OC(C)=O)CO[C@@H]1C[C@@H]2O [Paclitaxel] | ++
CC(=O)[C@H]1CC[C@H]2[C@@H]3CCC4=CC(=O)CC[C@]4(C)[C@H]3CC[C@]12C [Progesterone] | +
CN(C)c1ccc(O)c2c1C[C@H]1C[C@H]3[C@H](N(C)C)C(O)=C(C(N)=O)C(=O)[C@@]3(O)C(O)=C1C2=O [Minocycline] | ++
CC(N)C12CC3CC(CC(C3)C1)C2 (stereo not shown) [Rimantadine] | ++
O=C(O)P(=O)(O)O [Foscarnet] | ++
CC(=O)N[C@H]1[C@H]([C@H](O)[C@H](O)CO)OC(C(=O)O)=C[C@@H]1N=C(N)N [Zanamivir] | ++
CC(C)(C)NC(=O)[C@@H]1C[C@@H]2CCCC[C@@H]2CN1C[C@@H](O)[C@H](Cc1ccccc1)NC(=O)[C@H](CC(N)=O)NC(=O)c1ccc2ccccc2n1 [Saquinavir] | ++
Nc1nc2[nH]cc(CCc3ccc(C(=O)N[C@@H](CCC(=O)O)C(=O)O)cc3)c2c(=O)[nH]1 [Pemetrexed] | +
CC12CC3CC(C)(C1)CC(N)(C3)C2 [Memantine] | ++
Nc1nc2nc[nH]c2c(=S)[nH]1 [Tioguanine] | ++
COc1cccc2c1C(=O)c1c(O)c3c(c(O)c1C2=O)C[C@@](O)(C(C)=O)C[C@@H]3O[C@H]1C[C@H](N)[C@H](O)[C@H](C)O1 [Aunomycin] | +
NC(=O)c1cccnc1 [Nicotinamide] | ++
CC1=C(/C=C/C(C)=C/C=C/C(C)=C\C(=O)O)C(C)(C)CCC1 [Isotretinoin] | ++
C=C[C@H]1C[N@@]2CC[C@H]1C[C@H]2[C@H](O)c1ccnc2ccc(OC)cc12 [Quinine] | ++
O=C(O)c1ccccc1 [Benzoic acid] | ++
